Source: US20130035232A1, “INDUCTION AND STABILIZATION OF ENZYMATIC ACTIVITY IN MICROORGANISMS” (GEORGIA STATE UNIVERSITY RESEARCH FOUNDATION, INC., priority 2010, published 2013)

What was measured:
nitrile hydratase [1] = assay: Nitrile hydratase production on supplemented medium; format: cell-based; details: YEMEA, urea, cobalt, supplement 3.8 mM
Protocol: The induction of nitrile hydratase production and amidase production in various nitrile hydratase producing microorganisms was evaluated. All strains were grown on YEMEA medium containing 7.5 g/L of urea and 10 ppm cobalt (provided as cobalt chloride) supplemented with asparagine (ASN), glutamine (GLN), or both asparagine and glutamine. The asparagine and glutamine were added at a concentration of 3.8 mM. As a comparative, enzyme production with no supplementation was also tested. Growth temperature was in the range of 26° C. to 30° C.

amidase [2] = assay: Amidase induction by inducers (Example 1); format: cell-based, Rhodococcus sp., strain DAP 96253
Protocol: (§1) The induction of nitrile hydratase activity and amidase activity in Rhodococcus sp., strain DAP 96253, was evaluated using multiple types of inducers (1000 ppm). Three different samples were cultured in YEMEA medium containing 10 ppm cobalt and 7.5 g/L urea and supplemented with acrylonitrile, asparagine, or glutamine. The specific nitrile hydratase activity and the specific amidase activity in each sample was evaluated, and the results are provided below in Table 3, with activities provided in units/mg cdw (cell dry weight). One unit of nitrile hydratase activity relates to the ability to convert 1 μmol of acrylonitrile to its corresponding amide per minute, per milligram of cells (dry weight) at a pH of 7.0 and a temperature of 30° C. One unit of amidase activity relates to the ability to convert 1 μmol of acrylamide to its corresponding acid per minute, per milligram of cells (dry weight) pH of 7.0 and a temperature of 30° C.

nitrile hydratase [3] = assay: Nitrile hydratase induction by inducers (Example 1); format: cell-based, Rhodococcus sp., strain DAP 96253; details: inducer 1000 ppm
Protocol: as §1

asparaginase I [4] = assay: Asparaginase I production on supplemented medium; format: cell-based; details: YEMEA, 7.5 g/L urea, 10 ppm cobalt
Protocol: The induction of asparaginase I production in various nitrile hydratase producing microorganisms was evaluated. All strains were grown on YEMEA medium containing 7.5 g/L of urea and 10 ppm cobalt (provided as cobalt chloride) supplemented with asparagine (ASN), glutamine (GLN), or both asparagine and glutamine. The asparagine and glutamine were added at a concentration of 3.8 mM. As a comparative, enzyme production was also evaluated with supplementation with acrylonitrile (AN), acrylamide (AMD) or acrylonitrile and acrylamide. Growth temperature was in the range of 26° C. to 30° C.

amidase [5] = assay: 20 liter fermentation with asparagine feed: amidase; format: cell-based, Rhodococcus sp. DAP 96253; details: end of 20 liter fermentation; asparagine 0.15M at 1000 μl/min from t=10 hour
Protocol: (§2) Rhodococcus sp. DAP 96253 were grown using biphasic medium as the source of inoculum for a 20 liter fermentation. The supplemental addition of medium/carbohydrate (either YEMEA, dextrose or maltose) was made to the modified R2A medium, containing cottonseed hydrolysate substituted for the Proteos Peptone 3 (PP3). Asparagine (0.15M solution) was added at a continuous rate of 1000 μl/min beginning at t=10 hour. At the end of the fermentation run, 159 units per milligram cell dry weight of acrylonitrile specific nitrile hydratase, 22 units of amidase per milligram cell dry weight, and 16 g/l cell packed wet weight were produced.

asparaginase I [6] = assay: 20 liter fermentation with asparagine feed: asparaginase I; format: cell-based, Rhodococcus sp. DAP 96253; details: end of 20 liter fermentation; asparagine 0.15M at 1000 μl/min from t=10 hour; FIG. 5
Protocol: as §2

[7] = system: Brevibacterium ketoglutaricum ATCC 21533; assay: Growth on supplemented YEMEA (visual grade); format: cell-based; set-up: key: (−) meaning no detectable growth; (+/−) meaning scant growth; (+) meaning little growth; (++) meaning good growth; (+++) meaning very good growth; (++++) meaning excellent growth; details: 30 °C, 7.5 g/L urea, 10 ppm cobalt, supplement 3.8 mM
Protocol: (§3) The relative growth of various nitrile hydratase producing microorganisms was evaluated. All strains were grown on YEMEA medium containing 7.5 g/L of urea and 10 ppm cobalt (provided as cobalt chloride) supplemented with asparagine (ASN), glutamine (GLN), or both asparagine and glutamine. The asparagine and glutamine were added at a concentration of 3.8 mM. Growth temperature was in the range of 26° C. to 30° C. Growth was evaluated by visual inspection and graded on the following scale: (−) meaning no detectable growth; (+/−) meaning scant growth; (+) meaning little growth; (++) meaning good growth; (+++) meaning very good growth; and (++++) meaning excellent growth.

[8] = system: Rhodococcus sp. DAP 96253 ATCC 55899; assay: Growth on supplemented YEMEA (visual grade); format: cell-based; set-up: key: (−) meaning no detectable growth; (+/−) meaning scant growth; (+) meaning little growth; (++) meaning good growth; (+++) meaning very good growth; (++++) meaning excellent growth; details: 30 °C, 7.5 g/L urea, 10 ppm cobalt, supplement 3.8 mM
Protocol: as §3

[9] = system: Pseudomonas chloroaphis ATCC 13985; assay: Growth on supplemented YEMEA (visual grade); format: cell-based; set-up: key: (−) meaning no detectable growth; (+/−) meaning scant growth; (+) meaning little growth; (++) meaning good growth; (+++) meaning very good growth; (++++) meaning excellent growth; details: 26 °C, 7.5 g/L urea, 10 ppm cobalt, supplement 3.8 mM
Protocol: as §3

[10] = system: Pseudomonas chloroaphis ATCC 43051; assay: Growth on supplemented YEMEA (visual grade); format: cell-based; set-up: key: (−) meaning no detectable growth; (+/−) meaning scant growth; (+) meaning little growth; (++) meaning good growth; (+++) meaning very good growth; (++++) meaning excellent growth; details: 30 °C, 7.5 g/L urea, 10 ppm cobalt, supplement 3.8 mM
Protocol: as §3

[11] = system: Rhodococcus erythropolis ATCC 47072; assay: Growth on supplemented YEMEA (visual grade); format: cell-based; set-up: key: (−) meaning no detectable growth; (+/−) meaning scant growth; (+) meaning little growth; (++) meaning good growth; (+++) meaning very good growth; (++++) meaning excellent growth; details: 26 °C, 7.5 g/L urea, 10 ppm cobalt, supplement 3.8 mM
Protocol: as §3

[12] = system: Rhodococcus rhodochrous DAP 96622 ATCC 55898; assay: Growth on supplemented YEMEA (visual grade); format: cell-based; set-up: key: (−) meaning no detectable growth; (+/−) meaning scant growth; (+) meaning little growth; (++) meaning good growth; (+++) meaning very good growth; (++++) meaning excellent growth; details: 26 °C, 7.5 g/L urea, 10 ppm cobalt, supplement 3.8 mM
Protocol: as §3

[13] = Brevibacterium ketoglutaricum ATCC 21533, 30 °C
[14] = Pseudomonas chloroaphis ATCC 13985, 26 °C
[15] = Pseudomonas chloroaphis ATCC 43051, 30 °C
[16] = Rhodococcus erythropolis ATCC 47072, 26 °C
[17] = Rhodococcus rhodochrous DAP 96622 ATCC 55898, 26 °C
[18] = Rhodococcus sp. DAP 96253 ATCC 55899, 30 °C

NC(=O)C[C@H](N)C(=O)O [Asparagine, asparagine]
Nitrile Hydratase Level Based on Growth Medium Supplementation (nitrile hydratase [1]; [13]): 30 Units/mg cdw
Nitrile Hydratase Level Based on Growth Medium Supplementation (nitrile hydratase [1]; [14]): 14 Units/mg cdw
Nitrile Hydratase Level Based on Growth Medium Supplementation (nitrile hydratase [1]; [15]): 28 Units/mg cdw
Nitrile Hydratase Level Based on Growth Medium Supplementation (nitrile hydratase [1]; [16]): 48 Units/mg cdw
Nitrile Hydratase Level Based on Growth Medium Supplementation (nitrile hydratase [1]; [17]): 158 Units/mg cdw
Nitrile Hydratase Level Based on Growth Medium Supplementation (nitrile hydratase [1]; [18]): 155 Units/mg cdw
Amidase Activity (amidase [2]; Rhodococcus sp. DAP 96253, YEMEA, 10 ppm cobalt, 7.5 g/L urea, inducer 1000 ppm): 13.24 Units/mg cdw
amidase activity greater than that resulting from acrylonitrile (amidase [2]; relative to acrylonitrile as inducer, 1000 ppm): approximately 74%
Nitrile Hydratase Activity (nitrile hydratase [3]; Rhodococcus sp. DAP 96253, YEMEA, 10 ppm cobalt, 7.5 g/L urea): 170.50 Units/mg cdw
nitrile hydratase induction compared with acrylonitrile (nitrile hydratase [3]): exceeds the ability of acrylonitrile to induce such activity
Asparaginase I Level Based on Growth Medium Supplementation (asparaginase I [4]; [13]): 19.1 Units/mg cdw
Asparaginase I Level Based on Growth Medium Supplementation (asparaginase I [4]; [14]): 0 Units/mg cdw
Asparaginase I Level Based on Growth Medium Supplementation (asparaginase I [4]; [15]): 18.4 Units/mg cdw
Asparaginase I Level Based on Growth Medium Supplementation (asparaginase I [4]; [16]): 1 Units/mg cdw
Asparaginase I Level Based on Growth Medium Supplementation (asparaginase I [4]; [17]): 12.3 Units/mg cdw
Asparaginase I Level Based on Growth Medium Supplementation (asparaginase I [4]; [18]): 12.5 Units/mg cdw
amidase produced (amidase [5]): 22 units per milligram cell dry weight
asparaginase I produced (asparaginase I [6]): 16 units per milligram cell dry weight
Growth [7]: +
Growth [8]: ++++
Growth [9]: +
Growth [10]: +
Growth [11]: ++
Growth [12]: ++++
